#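 Protocol summary: plate cells (96-well), add compound at 5 concentrations, incubate 48 h, interpolate endpoints linearly. TGI denotes the concentration required for complete inhibition of growth.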
# Key:
# Experiment in all cases: growth of human tumour cells (NCI), 48 h
# SN12C renal = system: SN12C renal
# IGROV1 ovarian = system: IGROV1 ovarian
# HS 578T breast = system: HS 578T breast
# NCI-H460 lung = system: NCI-H460 lung
# MCF7 breast = system: MCF7 breast
# MOLT-4 leukemia = system: MOLT-4 leukemia
# MALME-3M melanoma = system: MALME-3M melanoma
# SF-539 CNS = system: SF-539 CNS
# SF-268 CNS = system: SF-268 CNS
# NCI-H522 lung = system: NCI-H522 lung
# UO-31 renal = system: UO-31 renal
# HCT-116 colon = system: HCT-116 colon
# CCRF-CEM leukemia = system: CCRF-CEM leukemia
# NCI/ADR-RES ovarian = system: NCI/ADR-RES ovarian
# HL-60(TB) leukemia = system: HL-60(TB) leukemia
# 786-0 renal = system: 786-0 renal
# OVCAR-5 ovarian = system: OVCAR-5 ovarian
# ACHN renal = system: ACHN renal
# COLO 205 colon = system: COLO 205 colon
# OVCAR-3 ovarian = system: OVCAR-3 ovarian
# T-47D breast = system: T-47D breast
# MDA-MB-435 = system: MDA-MB-435
# UACC-257 melanoma = system: UACC-257 melanoma
# NCI-H23 lung = system: NCI-H23 lung
# PC-3 prostate = system: PC-3 prostate
# SNB-19 CNS = system: SNB-19 CNS
# A549 NSCLC = system: A549 NSCLC
# HOP-62 NSCLC = system: HOP-62 NSCLC
# RXF 393 renal = system: RXF 393 renal
# OVCAR-8 ovarian = system: OVCAR-8 ovarian
# SK-MEL-28 melanoma = system: SK-MEL-28 melanoma
# UACC-62 melanoma = system: UACC-62 melanoma
# BT-549 breast = system: BT-549 breast
# RPMI-8226 leukemia = system: RPMI-8226 leukemia
# HCC-2998 colon = system: HCC-2998 colon
# HCT-15 colon = system: HCT-15 colon
# SNB-75 CNS = system: SNB-75 CNS
# SR leukemia = system: SR leukemia
# EKVX NSCLC = system: EKVX NSCLC
# HT29 colon = system: HT29 colon
# NCI-H226 lung = system: NCI-H226 lung
# DU-145 prostate = system: DU-145 prostate
# M14 melanoma = system: M14 melanoma
# SF-295 CNS = system: SF-295 CNS
# KM12 colon = system: KM12 colon
# LOX IMVI melanoma = system: LOX IMVI melanoma
# A498 renal = system: A498 renal
# SK-MEL-5 melanoma = system: SK-MEL-5 melanoma
# OVCAR-4 ovarian = system: OVCAR-4 ovarian
# HOP-92 NSCLC = system: HOP-92 NSCLC
# SW-620 colon = system: SW-620 colon
# K-562 leukemia = system: K-562 leukemia
# SK-MEL-2 melanoma = system: SK-MEL-2 melanoma
# MDA-N = system: MDA-N
# CAKI-1 renal = system: CAKI-1 renal
structure (smiles),measurement,setting,value
COc1ccc(/C=C2\C[C@H]3[C@@H]4CC=C5C[C@@H](OC(C)=O)CC[C@]5(C)[C@H]4CC[C@]3(C)C2=O)cc1OC,TGI,SN12C renal,> 100 µM
same,TGI,IGROV1 ovarian,> 100 µM
same,TGI,HS 578T breast,> 100 µM
same,TGI,NCI-H460 lung,> 100 µM
same,TGI,MCF7 breast,> 100 µM
same,TGI,MOLT-4 leukemia,> 100 µM
same,TGI,MALME-3M melanoma,> 100 µM
same,TGI,SF-539 CNS,> 100 µM
same,TGI,SF-268 CNS,> 100 µM
same,TGI,NCI-H522 lung,> 100 µM
same,TGI,UO-31 renal,35.9 µM
same,TGI,HCT-116 colon,> 100 µM
same,TGI,CCRF-CEM leukemia,> 100 µM
same,TGI,NCI/ADR-RES ovarian,> 100 µM
same,TGI,HL-60(TB) leukemia,78.9 µM
same,TGI,786-0 renal,> 100 µM
same,TGI,OVCAR-5 ovarian,> 100 µM
same,TGI,ACHN renal,> 100 µM
same,TGI,COLO 205 colon,> 100 µM
same,TGI,OVCAR-3 ovarian,> 100 µM
same,TGI,T-47D breast,> 100 µM
same,TGI,MDA-MB-435,> 100 µM
same,TGI,UACC-257 melanoma,> 100 µM
same,TGI,NCI-H23 lung,> 100 µM
same,TGI,PC-3 prostate,> 100 µM
same,TGI,SNB-19 CNS,> 100 µM
same,TGI,A549 NSCLC,> 100 µM
same,TGI,HOP-62 NSCLC,> 100 µM
same,TGI,RXF 393 renal,> 100 µM
same,TGI,OVCAR-8 ovarian,> 100 µM
same,TGI,SK-MEL-28 melanoma,> 100 µM
same,TGI,UACC-62 melanoma,> 100 µM
same,TGI,BT-549 breast,> 100 µM
same,TGI,RPMI-8226 leukemia,> 100 µM
same,TGI,HCC-2998 colon,> 100 µM
same,TGI,HCT-15 colon,> 100 µM
same,TGI,SNB-75 CNS,> 100 µM
same,TGI,SR leukemia,> 100 µM
same,TGI,EKVX NSCLC,66.5 µM
same,TGI,HT29 colon,> 100 µM
same,TGI,NCI-H226 lung,> 100 µM
same,TGI,DU-145 prostate,> 100 µM
same,TGI,M14 melanoma,> 100 µM
same,TGI,SF-295 CNS,> 100 µM
same,TGI,KM12 colon,> 100 µM
same,TGI,LOX IMVI melanoma,> 100 µM
same,TGI,A498 renal,> 100 µM
same,TGI,SK-MEL-5 melanoma,26.4 µM
same,TGI,OVCAR-4 ovarian,> 100 µM
same,TGI,HOP-92 NSCLC,> 100 µM
same,TGI,SW-620 colon,> 100 µM
same,TGI,K-562 leukemia,> 100 µM
same,TGI,SK-MEL-2 melanoma,> 100 µM
same,TGI,MDA-N,> 100 µM
same,TGI,CAKI-1 renal,> 100 µM

# Source: PubChem BioAssay (NCI)
